Results taken from ChEMBL document CHEMBL3351580, “Pyrano-isochromanones as IL-6 inhibitors: synthesis, in vitro and in vivo antiarthritic activity” (J Med Chem, 2014).
Active and inactive are the calls of the source. No cut-off for these calls is given here.

Experiments:
[1] = Inhibition of concanavalin A-induced cell proliferation of T cells (unknown origin) at 10 uM after 72 hrs by MTT assay; format: functional
Mus musculus [2] = test: Antiarthritic activity in DBA/1J mouse collagen-induced arthritis model assessed as reduction in IL6 level at 5 mg/kg, po administered once daily for 49 days starting from onset of disease and measured after 3 to 49 days of disease onset by ELISA method; format: functional, organism-based; set-up: dose 5 mg/kg
THP-1 [3] = test: Inhibition of LPS-induced IL6 production in human THP1 cells after 24 hrs; format: functional, cell-based; conditions: THP-1, 24 h
Mus musculus [4] = test: Antiarthritic activity in DBA/1J mouse collagen-induced arthritis model assessed as reduction in anticollagen antibody IgG1 level at 5 mg/kg, po administered once daily for 49 days starting from onset of disease and measured after 49 days of disease onset by ELISA method; format: functional, organism-based; set-up: dose 5 mg/kg
Mus musculus [5] = test: Antiarthritic activity in DBA/1J mouse collagen-induced arthritis model assessed as reduction in TNFalpha level at 5 mg/kg, po administered once daily for 49 days starting from onset of disease and measured after 3 to 49 days of disease onset by ELISA method; format: functional, organism-based; set-up: dose 5 mg/kg
Mus musculus [6] = test: Antiarthritic activity in DBA/1J mouse collagen-induced arthritis model assessed as reduction in IL-1beta level at 5 mg/kg, po administered once daily for 49 days starting from onset of disease and measured after 3 to 49 days of disease onset by ELISA method; format: functional, organism-based; set-up: dose 5 mg/kg
Mus musculus [7] = test: Antiarthritic activity in DBA/1J mouse collagen-induced arthritis model assessed as reduction in anticollagen antibody IgG2a level at 5 mg/kg, po administered once daily for 49 days starting from onset of disease and measured after 49 days of disease onset by ELISA method; format: functional, organism-based; set-up: dose 5 mg/kg
Mus musculus [8] = test: Antiarthritic activity in DBA/1J mouse collagen-induced arthritis model assessed as reduction in paw swelling at 5 mg/kg, po administered once daily for 49 days starting from onset of disease; format: functional; conditions: 1176 h
Mus musculus [9] = test: Antiarthritic activity in DBA/1J mouse collagen-induced arthritis model assessed as reduction in anticollagen antibody IgG2a level at 5 mg/kg, po administered once daily for 49 days starting from onset of disease and measured after 14 days of disease onset by ELISA method; format: functional, organism-based; set-up: dose 5 mg/kg
B-cell = test: Inhibition of LPS-induced cell proliferation of B cells (unknown origin) at 10 uM after 72 hrs by MTT assay; format: functional
THP-1 [10] = test: Inhibition of LPS-induced TNFalpha production in human THP1 cells after 24 hrs; format: functional, cell-based; conditions: THP-1, 24 h
Mus musculus [11] = test: Antiarthritic activity in DBA/1J mouse collagen-induced arthritis model assessed as reduction in anticollagen antibody IgG1 level at 5 mg/kg, po administered once daily for 49 days starting from onset of disease and measured after 14 days of disease onset by ELISA method; format: functional, organism-based; set-up: dose 5 mg/kg

For `C[C@H]1C[C@H]2[C@@H]3CCC4=CC(=O)C=C[C@]4(C)[C@@]3(F)[C@@H](O)C[C@]2(C)[C@@]1(O)C(=O)CO` [BETAMETHASONE], the inhibition at 10 µM [1] was 42.6%, the inhibition (Mus musculus [2]) was “Active” and the IC50 (THP-1 [3]) was 22 nM. For the same molecule, the inhibition (Mus musculus [4]) was “Active”, the inhibition (Mus musculus [5]) was “Active” and the inhibition (Mus musculus [6]) was “Active”. For the same molecule, the inhibition (Mus musculus [7]) was “Active”, the inhibition in vivo at 5 mg/kg (Mus musculus [8]) was 46% and the inhibition (Mus musculus [9]) was “Active”. The inhibition at 10 µM (B-cell) was 28.1%, the IC50 (THP-1 [10]) was 13 nM and the inhibition (Mus musculus [11]) was “Active”.
